These results are taken from patent US11339161B2, “Triazolo pyridines as modulators of gamma-secretase” (Boehringer Ingelheim International GmbH, priority 2017, dated 2022).

One assay relates to Aβ42 production. The experiment in a line: Inhibition of Aβ42 production in H4 neuroglioma cells stably expressing human APP695 (MSD electrochemiluminescence). It is filed as cell-based. As to the method: Cells were plated out to near confluency. The compounds to be tested were received as 10 mM stocks in 100% DMSO. A dilution series was initially generated in 100% DMSO and then diluted 200-fold in cell culture media such that the tested concentration range was 30 μM to 0.1 nM and the final DMSO concentration was 0.5%. The diluted compounds were incubated with the cells for 22 hours in an incubator at 37° C. and 5% CO2. Aβ42 levels were measured post-incubation from the supernatant of the cells using an Aβ42 specific electrochemiluminescence assay provided by Meso Scale Discovery (Catalog #L21CA-1). The measurement of Aβ42 levels were performed according to the manufacturer's protocol.

The target of the next assay is T1, MAP4K2 (GCK) (Homo sapiens, UniProt Q12851).
T1 sequence (Q12851 1-820): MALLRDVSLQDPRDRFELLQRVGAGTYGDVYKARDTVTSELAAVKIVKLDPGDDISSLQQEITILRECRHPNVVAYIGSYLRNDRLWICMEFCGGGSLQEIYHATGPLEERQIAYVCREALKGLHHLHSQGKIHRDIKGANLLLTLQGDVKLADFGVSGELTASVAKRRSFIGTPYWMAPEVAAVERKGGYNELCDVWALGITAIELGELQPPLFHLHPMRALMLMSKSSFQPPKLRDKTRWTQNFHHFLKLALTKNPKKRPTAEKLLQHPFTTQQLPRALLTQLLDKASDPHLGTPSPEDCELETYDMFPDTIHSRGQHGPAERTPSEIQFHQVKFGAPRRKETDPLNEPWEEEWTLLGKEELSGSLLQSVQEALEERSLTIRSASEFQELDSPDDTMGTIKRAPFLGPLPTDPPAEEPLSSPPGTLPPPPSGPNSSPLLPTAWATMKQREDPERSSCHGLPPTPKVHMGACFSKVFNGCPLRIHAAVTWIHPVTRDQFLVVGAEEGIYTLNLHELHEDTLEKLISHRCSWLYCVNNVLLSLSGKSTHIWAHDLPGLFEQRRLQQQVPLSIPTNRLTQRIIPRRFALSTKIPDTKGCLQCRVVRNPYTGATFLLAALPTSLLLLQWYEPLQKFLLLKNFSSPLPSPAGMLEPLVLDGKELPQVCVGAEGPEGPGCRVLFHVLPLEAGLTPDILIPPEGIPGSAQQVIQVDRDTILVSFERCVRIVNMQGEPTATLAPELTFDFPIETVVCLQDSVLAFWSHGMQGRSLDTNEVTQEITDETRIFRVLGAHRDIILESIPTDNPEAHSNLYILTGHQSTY
Briefly: Z'-LYTE SelectScreen biochemical kinase assay MAP4K2 (GCK). From the text: Thermo Fisher Scientific SelectScreen™ Biochemical Kinase Profiling Service Z′-LYTE™ Screening Protocol and Assay Conditions Assay Theory
The […] biochemical assay employs a fluorescence-based, coupled-enzyme format and is based on the differential sensitivity of phosphorylated and non-phosphorylated peptides to proteolytic cleavage. The peptide substrate is labeled with two fluorophores—one at each end—that make up a FRET pair. In the primary reaction, the kinase transfers the gamma-phosphate of ATP to a single tyrosine, serine or threonine residue in a synthetic FRET-peptide. In the secondary reaction, a site-specific protease recognizes and cleaves non-phosphorylated FRET-peptides. Phosphorylation of FRET-peptides suppresses cleavage by the Development Reagent. Cleavage disrupts FRET between the donor (i.e., coumarin) and acceptor (i.e., fluorescein) fluorophores on the FRET-peptide, whereas uncleaved, phosphorylated FRET-peptides maintain FRET. A ratiometric method, which calculates the ratio (Emission Ratio=Coumarin emission (445 nm)/Fluorescein emission (520 nm)) of donor emission to acceptor emission after excitation of the donor fluorophore at 400 nm, is used to quantitate reaction progress, as shown in the equation below. A significant benefit of this ratiometric method for quantitating reaction progress is the elimination of well-to-well variations in FRET-peptide concentration and signal intensities. As a result, the assay yields very high Z′-factor values (>0.7) at a low percent phosphorylation. Both cleaved and uncleaved FRET-peptides contribute to the fluorescence signals and therefore to the Emission Ratio. The extent of phosphorylation of the FRET-peptide can be calculated from the Emission Ratio. The Emission Ratio will remain low if the FRET-peptide is phosphorylated (i.e., no kinase inhibition) and will be high if the FRET-peptide is non-phosphorylated (i.e., kinase inhibition).
The Test Compounds are screened in 1% DMSO (final) in the well. For 10 point titrations, 3-fold serial dilutions are conducted from the starting concentration of the customer's choosing.
All Peptide/Kinase Mixtures are diluted to a 2× working concentration in the appropriate Kinase Buffer (see section Kinase Specific Assay Conditions for a complete description).
All ATP Solutions are diluted to a 4× working concentration in Kinase Buffer (50 mM HEPES pH 7.5, 0.01% BRIJ-35, 10 mM MgCl2, 1 mM EGTA). ATP Km apparent is previously determined using a Z″-LYTE assay.
The Development Reagent is diluted in Development Buffer (see section Kinase-Specific Assay Conditions—Direct and Cascade for a complete description).
Bar-coded Corning, low volume NBS, black 384-well plate (Corning Cat. #4514) • 1. 100 nL—100× Test Compound in 100% DMSO • 2. 2.4 μL—Kinase buffer • 3. 5 μL—2× Peptide/Kinase Mixture • 4. 2.5 μL—4×ATP Solution • 5. 30—second plate shake • 6. 60—minute Kinase Reaction incubation at room temperature • 7. 5 μL—Development Reagent Solution • 8. 30—second plate shake • 9. 60—minute Development Reaction incubation at room temperature • 10. Read on fluorescence plate reader and analyze the data Z′-LYTE Assay Controls
SelectScreen Kinase Profiling Service uses XLfit from IDBS. The dose response curve is curve fit to model number 205 (sigmoidal dose-response model).
The 2×MAP4K2 (GCK)/Ser/Thr 07 mixture is prepared in 50 mM HEPES pH 7.5, 0.01% BRIJ-35, 10 mM MgCl2, 1 mM EGTA. The final 10 μL Kinase Reaction consists of 0.11-3 ng MAP4K2 (GCK) and 2 μM Ser/Thr 07 in 50 mM HEPES pH 7.5, 0.01% BRIJ-35, 10 mM MgCl2, 1 mM EGTA. After the 1 hour Kinase Reaction incubation, 5 μL of a 1:45000 dilution of Development Reagent A is added.

Where [1] appears, read: H4 neuroglioma cells expressing human APP695, 22 hours incubation, Table 4a.
The mark [2] stands for this setting: 10 μmolar compound concentration, ATP at Km app, read-out: MAP4K2 (GCK) inhibition.
[3] abbreviates: read-out: % Inhibition mean MAP4K2 (GCK).

Molecules are shown by their SMILES. Read-outs that look alike come from different tables or passages of the source.

The IC50 is the concentration that gives 50% inhibition. A lower IC50 goes with greater potency. Usually inhibition stands for how much of the control response was suppressed.

Take `CCn1nc(Cl)c2c1CCC(Nc1nc3c(-c4ccc(F)cc4C)cccn3n1)C2` (stereo not shown) [Example 48, (3-Chloro-1-ethyl-4,5,6,7-tetrahydro-1H-indazol-5-yl)-[8-(4-fluoro-2-methyl-phenyl)-[1,2,4]triazolo[1,5-a]pyridine-2-yl]-amine]: the midpoint of inhibition in the assay with Aβ42 production (setting [1]), the IC50, lay at 0.75 µM. Moreover, the figures for the inhibition at 10 µM at MAP4K2 (GCK) (setting [2]) and at MAP4K2 (GCK) (setting [3]) were less than 40% and 16%, respectively.

Compound `CCn1ncc2c1CCC(Nc1nc3c(-c4cccc(Cl)c4)cccn3n1)C2` (stereo not shown) [Example 59, [8-(3-Chloro-phenyl)-[1,2,4]triazolo[1,5-a]pyridine-2-yl]-(1-ethyl-4,5,6,7-tetrahydro-1H-indazol-5-yl)-amine] returned a concentration for half-maximal inhibition (IC50) in the assay on Aβ42 production (setting [1]) of 0.04 µM. In addition, the inhibition at 10 µM on MAP4K2 (GCK) (setting [2]) is less than 40%; on MAP4K2 (GCK) (setting [3]), 22%.

As to `CCn1ncc2c1CCC(Nc1nc3c(-c4cccnc4)cccn3n1)C2` (stereo not shown) [Example 63, (1-Ethyl-4,5,6,7-tetrahydro-1H-indazol-5-yl)-(8-pyridin-3-yl-[1,2,4]triazolo[1,5-a]pyridine-2-yl)-amine], the half-maximal inhibitory concentration (IC50) with Aβ42 production (setting [1]) was 0.35 µM. The values for the inhibition at 10 µM on MAP4K2 (GCK) (setting [2]) and on MAP4K2 (GCK) (setting [3]) were less than 40% and 14%, respectively.

For `Cc1cc(F)ccc1-c1cccn2nc(NC3CCc4c(cnn4CC(C)C)C3)nc12` (stereo not shown) [Example 45, [8-(4-fluoro-2-methyl-phenyl)-[1,2,4]triazolo[1,5-a]pyridine-2-yl]-(1-isobutyl-4,5,6,7-tetrahydro-1H-indazol-5-yl)-amine], it took 3.4 µM to reach half-maximal inhibition with Aβ42 production (setting [1]) (IC50). Also, the inhibition at 10 µM at MAP4K2 (GCK) (setting [2]) was less than 40%; on MAP4K2 (GCK) (setting [3]), 24%.

As to `Cc1cc(F)ccc1-c1cccn2nc(NC3CCc4cnn(C)c4C3)nc12` (stereo not shown) [Example 40, [8-(4-Fluoro-2-methyl-phenyl)-[1,2,4]triazolo[1,5-a]pyridine-2-yl]-(1-methyl-4,5,6,7-tetrahydro-1H-indazol-6-yl)-amine], the half-inhibitory concentration (IC50) with Aβ42 production (setting [1]) was greater than 30 µM. Further, the inhibition at 10 µM at MAP4K2 (GCK) (setting [2]) is less than 40%; at MAP4K2 (GCK) (setting [3]), 13%.

Compound `CCn1ncc2c1CCC(Nc1nc3c(-c4ccccc4)cccn3n1)C2` (stereo not shown) [Example 57, (1-Ethyl-4,5,6,7-tetrahydro-1H-indazol-5-yl)-(8-phenyl-[1,2,4]triazolo[1,5-a]pyridine-2-yl)-amine] showed a half-maximal inhibitory concentration (IC50) in the assay with Aβ42 production (setting [1]) of 0.07 µM. Moreover, the figures for the inhibition at 10 µM at MAP4K2 (GCK) (setting [2]) and at MAP4K2 (GCK) (setting [3]) were less than 40% and 13%, respectively.

On to `CCn1ncc2c1CCC(Nc1nc3c(-c4ccccc4C)cccn3n1)C2` (stereo not shown) [Example 56, (1-Ethyl-4,5,6,7-tetrahydro-1H-indazol-5-yl)-[8-(2-methyl-phenyl)-[1,2,4]triazolo[1,5-a]pyridine-2-yl]-amine], for which, in the assay with Aβ42 production (setting [1]), the midpoint of inhibition, the IC50, lay at 0.16 µM. Besides, the inhibition at 10 µM at MAP4K2 (GCK) (setting [2]) is less than 40%; at MAP4K2 (GCK) (setting [3]) it was 16%.

Consider `Fc1cccc(-c2cccn3nc(Nc4ccc5[nH]cnc5c4)nc23)c1` [Cpd. 293 in WO09155551, reference compound], for which the concentration for half-maximal inhibition (IC50) in the assay on Aβ42 production (Homo sapiens, H4 neuroglioma cells, same assay as table 4a, prior art compounds, Table 4b) came out at 7 µM. In the assay on Aβ42 production (tables 4a/4b), the “modulation of γ-secretase (in words)” value is given as “do not show any modulation”. In addition, the inhibition at 10 µM at MAP4K2 (GCK) (setting [2]) was greater than 80%; at MAP4K2 (GCK) (read-out: % Inhibition mean), 94%.

Compound `Cc1cc(F)ccc1-c1cccn2nc(NC3CCc4c(cnn4C)C3)nc12` (stereo not shown) [Example 10, [8-(4-fluoro-2-methyl-phenyl)-[1,2,4]triazolo[1,5-a]pyridine-2-yl]-(1-methyl-4,5,6,7-tetrahydro-1H-indazol-5-yl)-amine] came in with an IC50 with Aβ42 production (setting [1]) of 0.38 µM. Also, the inhibition at 10 µM was less than 40% on MAP4K2 (GCK) (setting [2]) and 8% on MAP4K2 (GCK) (setting [3]).

As to `CCCCCn1ncc2c1CCC(Nc1nc3c(-c4ccc(F)cc4C)cccn3n1)C2` (stereo not shown) [Example 47, [8-(4-fluoro-2-methyl-phenyl)-[1,2,4]triazolo[1,5-a]pyridine-2-yl]-(1-pentyl-4,5,6,7-tetrahydro-1H-indazol-5-yl)-amine], in the assay with Aβ42 production (setting [1]), the IC50 is greater than 30 µM. Moreover, the inhibition at 10 µM at MAP4K2 (GCK) (setting [2]) is less than 40%; at MAP4K2 (GCK) (setting [3]), 11%.

In the assay with Aβ42 production (setting [1]), `CCn1ncc2c1CCC(Nc1nc3c(-c4ccc(C)nc4)cccn3n1)C2` (stereo not shown) [Example 67, (1-Ethyl-4,5,6,7-tetrahydro-1H-indazol-5-yl)-[8-(6-methyl-pyridin-3-yl)-[1,2,4]triazolo[1,5-a]pyridine-2-yl]-amine] came in with a half-maximal inhibitory concentration (IC50) of 0.67 µM. For the same compound, the inhibition at 10 µM on MAP4K2 (GCK) (setting [2]) is less than 40%; at MAP4K2 (GCK) (setting [3]), 14%.

As for `CCn1ncc2c1CCC(Nc1nc3c(-c4cncc(OC)c4)cccn3n1)C2` (stereo not shown) [Example 70, (1-Ethyl-4,5,6,7-tetrahydro-1H-indazol-5-yl)-[8-(5-methoxy-pyridin-3-yl)-[1,2,4]triazolo[1,5-a]pyridine-2-yl]-amine], the IC50 with Aβ42 production (setting [1]) turned out to be 0.2 µM. Moreover, the inhibition at 10 µM on MAP4K2 (GCK) (setting [2]) is less than 40%; at MAP4K2 (GCK) (setting [3]), 7%.

Consider `CCc1nn(C)c2c1CCC(Nc1nc3c(-c4ccc(F)cc4C)cccn3n1)C2` (stereo not shown) [Example 54, (3-Ethyl-1-methyl-4,5,6,7-tetrahydro-1H-indazol-6-yl)-[8-(4-fluoro-2-methyl-phenyl)-[1,2,4]triazolo[1,5-a]pyridine-2-yl]-amine], for which, in the assay on Aβ42 production (setting [1]), 3.13 µM corresponded to half-maximal inhibition (IC50). Besides, the inhibition at 10 µM at MAP4K2 (GCK) (setting [2]) is less than 40%; on MAP4K2 (GCK) (setting [3]), 27%.

`CCn1ncc2c1CCC(Nc1nc3c(-c4ccc(F)cc4)cccn3n1)C2` (stereo not shown) [Example 55, (1-Ethyl-4,5,6,7-tetrahydro-1H-indazol-5-yl)-[8-(4-fluoro-phenyl)-[1,2,4]triazolo[1,5-a]pyridine-2-yl]-amine] displayed an IC50 in the assay on Aβ42 production (setting [1]) of 0.18 µM. Moreover, the inhibition at 10 µM at MAP4K2 (GCK) (setting [2]) was less than 40%; at MAP4K2 (GCK) (setting [3]), 30%.

For `CCn1ncc2c1CCC(Nc1nc3c(-c4ccc(OC)nc4)cccn3n1)C2` (stereo not shown) [Example 71, (1-Ethyl-4,5,6,7-tetrahydro-1H-indazol-5-yl)-[8-(6-methoxy-pyridin-3-yl)-[1,2,4]triazolo[1,5-a]pyridine-2-yl]-amine], the IC50 in the assay with Aβ42 production (setting [1]) came out at 0.09 µM. In addition, the inhibition at 10 µM on MAP4K2 (GCK) (setting [2]) was less than 40%; at MAP4K2 (GCK) (setting [3]), 26%.
